Assay results: the METLIN SMRT retention time set (Domingo-Almenara et al. 2019)

Experiment: gradient 5% acetonitrile 3 min, to 50% in 2 min, to 85% in 15 min, held 3 min, 100 µL/min
Settings: column: Zorbax Extend-C18 2.1 x 50 mm; eluents: water / acetonitrile, 0.1% formic acid
Method in brief: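 Over 3 months, pure standards in mixtures of ~100 molecules were run by HPLC coupled to a quadrupole time-of-flight mass spectrometer in positive and negative ionization mode. The column was a Zorbax Extend-C18 (2.1 × 50 mm, 1.8 μm) at 100 μL/min, eluted with water and acetonitrile each holding 0.1% formic acid, with 40 μL dead and 900 μL dwell volumes. Retention time was determined from adduct peaks chosen by software and checked manually.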

Work on `COC(=O)Cn1nc(-c2nc(-c3ccc(C)cc3)no2)ccc1=O` yielded an RP-LC retention time of 928 s.
With `CCC1CN(C(=O)N2CCC(C(=O)NCCN3CCN(CC)CC3)CC2)c2cc(C)ccc2O1` (stereo unspecified) the RP-LC retention time was 616 s.
For `C=CCN(Cc1nc(-c2cccc(C)c2)no1)C(=O)Nc1cccc(C)c1`, the RP-LC retention time was 1090 s.
In the case of `CN(C)c1cccc(-c2nc(-c3cn(Cc4ccc(F)cc4)nn3)no2)c1`, the RP-LC retention time is reported as 1030 s.
`CN(C(=O)C1CCN(S(=O)(=O)c2cc(C(=O)N3CCCCCC3)cs2)CC1)C1CCCCC1` showed an RP-LC retention time of 975 s.
Work on `Cn1c(=O)c(N2CCC(C(=O)NCCc3ccco3)CC2)nc2cccnc21` yielded an RP-LC retention time of 811 s.
Compound `CC(C)CNC(=O)c1cn(-c2ccc(NC(=O)C(C)C)cn2)cn1` has an RP-LC retention time of 702 s.
Compound `COC(=O)c1c(C)[nH]c(C(=O)N2CCC(CC(=O)N(C)Cc3ccco3)CC2)c1C` has an RP-LC retention time of 728 s.
For `CC1Cc2ccccc2N1C(=O)CSc1nnc(-c2ccccc2)o1` (stereo unspecified), the RP-LC retention time was 1010 s.
`Cc1sc2cc(C(=O)NCCN3CCOCC3)[nH]c2c1CN1CCCCC1` showed an RP-LC retention time of 551 s.
Compound `Cc1nc(C)c(-c2ccc(=O)n(CCNC(=O)Cn3cnc4ccccc43)n2)s1` has an RP-LC retention time of 552 s.
Work on `CCC(=O)Nc1ccc(CCc2nc3ccc(C(=O)NC(C)Cc4ccco4)cc3[nH]2)cc1` (stereo unspecified) yielded an RP-LC retention time of 630 s.
`CSc1cccc(NC(=O)Cn2cnc3c(sc4nc(-c5ccccc5)ccc43)c2=O)c1` gave an RP-LC retention time of 1040 s.
With `Cc1ccc(NS(=O)(=O)c2cc(-c3[nH]ncc3C(=O)N(C)C)oc2C)c(C)c1` the RP-LC retention time was 739 s.
`O=C1NC2(CCN(C(=O)NCc3ccccc3)CC2)Nc2c(Cl)cccc21` showed an RP-LC retention time of 724 s.
`CS(=O)(=O)N1CCN(C(=O)Cc2csc(Nc3ncccn3)n2)CC1` showed an RP-LC retention time of 601 s.
In the case of `Cc1ccn2c(Nc3ccc4c(c3)OCO4)c(-c3ccc(Cl)cc3)nc2c1`, the RP-LC retention time is reported as 736 s.
For `c1ccc(N2CCN(Cc3cccn3-c3nnc(N4CCOCC4)s3)CC2)nc1`, the RP-LC retention time was 756 s.
For `Cc1ccc(-n2nc(C)c3sc(N4CCCC(C(=O)NCc5ccc(N(C)C)cc5)C4)nc32)cc1` (stereo unspecified), the RP-LC retention time was 867 s.
In the case of `COc1ccc(NC(=O)C(C)C2CCN(C(=O)Nc3ccc(C)cc3)CC2)c(OC)c1` (stereo unspecified), the RP-LC retention time is reported as 848 s.
Work on `O=C([C@@H]1C[C@H](F)CN1C(=O)c1ccccc1)N1CCCCC1` yielded an RP-LC retention time of 668 s.
With `COc1cc(C(=O)Nc2nc3c(C)cc(Cl)cc3s2)cc(OC)c1OC` the RP-LC retention time was 1120 s.
Work on `CCCCNC(=O)CCC1CCN(c2cc(NC3CC3)ncn2)CC1` yielded an RP-LC retention time of 629 s.
In the case of `COc1ccc(-c2nc3ccccn3c2NC(=O)c2ccc(Cl)c([N+](=O)[O-])c2)cc1`, the RP-LC retention time is reported as 720 s.
Compound `O=[N+]([O-])c1cccc(-c2nnc3c4cnn(-c5ccc(F)cc5)c4ncn23)c1` has an RP-LC retention time of 1080 s.
Work on `O=C(O)c1cncc(Br)c1` yielded an RP-LC retention time of 701 s.
For `CCN1c2cc(C(N)=O)ccc2C(=O)N2CCCCCC21` (stereo unspecified), the RP-LC retention time was 649 s.
Work on `O=C1NC2(CCN(C(=O)Nc3ccc(Cl)cc3)CC2)N=C1c1ccccc1` yielded an RP-LC retention time of 829 s.
`O=S(=O)(c1ccc(-c2noc(-c3cccc(Cl)c3)n2)cc1)N1CCCC1` showed an RP-LC retention time of 1260 s.
Compound `Cc1ccccc1Oc1nccn2c(=O)n(CC(=O)Nc3ccccc3Cl)nc12` has an RP-LC retention time of 863 s.
`O=C(Nc1cccc(F)c1)C1CCN(C(=O)c2ncn3c2COC(c2ccc(F)cc2)C3)CC1` (stereo unspecified) gave an RP-LC retention time of 832 s.
With `COc1ccc(N2CC(c3noc(-c4ccc(Cl)cc4)n3)CC2=O)cc1OC` (stereo unspecified) the RP-LC retention time was 956 s.
`O=C(COc1ccccc1)N1CCC(CNS(=O)(=O)Cc2cccc(F)c2)CC1` gave an RP-LC retention time of 782 s.
With `O=C(c1cccc2c1CCN2C(=O)C1CC1)N1CCCCC1` the RP-LC retention time was 746 s.
Work on `O=C(C1=C(O)C(=O)N(CCCn2ccnc2)C1c1ccc(F)cc1)c1cc2ccccc2o1` (stereo unspecified) yielded an RP-LC retention time of 622 s.
`Cc1nc(-c2cn(C)c3ncccc23)sc1C(=O)Nc1ccc(Cl)cc1` showed an RP-LC retention time of 1060 s.
